Data as given in patent publication US8722727B2, “Antifungal agents” (Seynix, Inc., priority 2008, dated 2014).

Molecular target: T1, glucan synthase (GS) (Candida albicans, UniProt O13428)
T1 construct: Extraction of GS activity from membranes was performed at a protein concentration of 5 mg/mL in extraction buffer; endogenous in cells; host or cells: Candida albicans MY1055 (membrane fraction, detergent extraction, product entrapment)
Experiment: Glucan synthase inhibition (polymerization assay, 96-well)
Assay type: biochemical
Conditions: glucan synthase prepared from Candida albicans MY1055; 60 min incubation at 22° C.; read-out: Candida Albicans GS IC50 (ng/mL) (converted)
Method: The in vitro evaluation of glucan synthase inhibitory activity of compounds was measured in a polymerization assay in 96-well format. Each well contained 100 μL of ^3H-UDPG at 0.5 mM (6000 to 8000 dpm/nmol), 50 mM HEPES pH 7.5 (Sigma), 10% w/v glycerol (Sigma), 1.5 mg/mL bovine serum albumin (Sigma A 9647. Lot 44H0190), 25 mM KF (Fisher), 1 mM EDTA (Gibco ULTRAPURE), 25 μM GTP-γ-S, enzyme sufficient to give 3 to 6 nmoles incorporation during the 60 min incubation at 22° C., and test compound added from wells in 3-fold serial dilutions in 100% DMSO (1 μL/well). The reaction was stopped by the addition of 100 μL of 20% trichloroacetic acid. Plates were chilled for a minimum of 10 min, and precipitated glucan collected by filtration on GF/C plates (Packard UNIFILTER®-96), washed with 5 cycles of water (about 1 mL/well each cycle) using a Packard FILTERMATE HARVESTER. 40 μL/well scintillation fluid (Packard ULTIMA GOLD TM-XR) was added and the sealed plates counted in a WALLAC BETA counter in top-counting mode at an efficiency of approximately 40%.
Stock solutions were stored at 10 mg/mL in DMSO at −20° C. For each new enzyme preparation, the initial titration performed started at 1 mg/mL, which was prepared by making a 10-fold dilution in DMSO (5 μL to 50 μL). 40 μL of this stock was placed in column 12 of a round-bottomed 96-well microtiter plate. 40 μL DMSO was added to columns 1 to 11 in the same row and ten 3-fold serial dilutions performed, by transferring 20 μL from column 12 to column 11 etc., with 4 mixings before each transfer. No test compound was transferred to from column 2 to column 1. Duplicate aliquots of 1 μL of all 12 dilutions were then transferred to the side walls of a 96-well Bioblock 1.1 mL plate (Fisher brand) to create two rows. Graphs of the primary data were created in PRISM software (the average of two determinations) using PRISM's curve fitting program (sigmoidal dose response non-linear regression). The amount of compound required to inhibit glucan synthase activity by 50% in this assay (IC50-ng/mL) was calculated.
Routine analysis was performed with glucan synthase (GS) prepared from Candida albicans MY1055 by the following procedure: MY1055 was grown in 10 liters YPD medium (10 g yeast extract, 20 g tryptone, 20 g glucose per liter) with vigorous shaking at 30° C., to early stationary phase. Cells were harvested by centrifugation, the pellet was washed and frozen at −70° C. until breakage. Thawed pellets were shaken with an equal volume of breakage buffer (50 mM HEPES pH 7.4, 10% glycerol, 1 mM EDTA, 1 mM PMSF, 1 mM DTT) and 4 times their weight of 0.5 mm acid washed glass beads for 2 hours at 4° C. Extent of breakage was assessed visually at 40× magnification. After low speed centrifugation to remove cell debris, the supernatant was centrifuged at 100,000×g for 60 min. to separate membranes plus ribosomes from cytoplasmic components. Membranes were further washed two additional times with breakage buffer using the same centrifugation conditions and finally suspended in breakage buffer at 25 to 30 mg/mL protein (Biorad) for storage at −70° C. Extraction of GS activity from membranes was performed at a protein concentration of 5 mg/mL in extraction buffer (50 mM NaPO4 pH 7.5, 0.1 M KCl, 0.1M Na citrate, 20% glycerol, 5 μM GTP-γ-S, 1 mM DTT, 1 mM PMSF, 3 μg/mL pepstatin) plus 0.25% W1 by gentle mixing at 4° C. for 60 min, followed by centrifugation at 100,000×g for 60 min. After centrifugation, clear supernatant was removed from a pellet consisting of a hard layer usually with small amounts of gelatinous unextracted membranes above it.
Trapping was initiated immediately by 5-fold dilution in trapping buffer (50 mM HEPES pH 7.5, 10 mM KF, 1 mM EDTA, 2 mg/mL BSA) plus 2.5 mM UDPG and 10 μM GTP-γ-S. After incubation at 25° C. for 60 to 90 minutes, glucan was harvested by low speed centrifugation (3,000×g, 10 min). […]

T1 sequence (O13428 1-1897): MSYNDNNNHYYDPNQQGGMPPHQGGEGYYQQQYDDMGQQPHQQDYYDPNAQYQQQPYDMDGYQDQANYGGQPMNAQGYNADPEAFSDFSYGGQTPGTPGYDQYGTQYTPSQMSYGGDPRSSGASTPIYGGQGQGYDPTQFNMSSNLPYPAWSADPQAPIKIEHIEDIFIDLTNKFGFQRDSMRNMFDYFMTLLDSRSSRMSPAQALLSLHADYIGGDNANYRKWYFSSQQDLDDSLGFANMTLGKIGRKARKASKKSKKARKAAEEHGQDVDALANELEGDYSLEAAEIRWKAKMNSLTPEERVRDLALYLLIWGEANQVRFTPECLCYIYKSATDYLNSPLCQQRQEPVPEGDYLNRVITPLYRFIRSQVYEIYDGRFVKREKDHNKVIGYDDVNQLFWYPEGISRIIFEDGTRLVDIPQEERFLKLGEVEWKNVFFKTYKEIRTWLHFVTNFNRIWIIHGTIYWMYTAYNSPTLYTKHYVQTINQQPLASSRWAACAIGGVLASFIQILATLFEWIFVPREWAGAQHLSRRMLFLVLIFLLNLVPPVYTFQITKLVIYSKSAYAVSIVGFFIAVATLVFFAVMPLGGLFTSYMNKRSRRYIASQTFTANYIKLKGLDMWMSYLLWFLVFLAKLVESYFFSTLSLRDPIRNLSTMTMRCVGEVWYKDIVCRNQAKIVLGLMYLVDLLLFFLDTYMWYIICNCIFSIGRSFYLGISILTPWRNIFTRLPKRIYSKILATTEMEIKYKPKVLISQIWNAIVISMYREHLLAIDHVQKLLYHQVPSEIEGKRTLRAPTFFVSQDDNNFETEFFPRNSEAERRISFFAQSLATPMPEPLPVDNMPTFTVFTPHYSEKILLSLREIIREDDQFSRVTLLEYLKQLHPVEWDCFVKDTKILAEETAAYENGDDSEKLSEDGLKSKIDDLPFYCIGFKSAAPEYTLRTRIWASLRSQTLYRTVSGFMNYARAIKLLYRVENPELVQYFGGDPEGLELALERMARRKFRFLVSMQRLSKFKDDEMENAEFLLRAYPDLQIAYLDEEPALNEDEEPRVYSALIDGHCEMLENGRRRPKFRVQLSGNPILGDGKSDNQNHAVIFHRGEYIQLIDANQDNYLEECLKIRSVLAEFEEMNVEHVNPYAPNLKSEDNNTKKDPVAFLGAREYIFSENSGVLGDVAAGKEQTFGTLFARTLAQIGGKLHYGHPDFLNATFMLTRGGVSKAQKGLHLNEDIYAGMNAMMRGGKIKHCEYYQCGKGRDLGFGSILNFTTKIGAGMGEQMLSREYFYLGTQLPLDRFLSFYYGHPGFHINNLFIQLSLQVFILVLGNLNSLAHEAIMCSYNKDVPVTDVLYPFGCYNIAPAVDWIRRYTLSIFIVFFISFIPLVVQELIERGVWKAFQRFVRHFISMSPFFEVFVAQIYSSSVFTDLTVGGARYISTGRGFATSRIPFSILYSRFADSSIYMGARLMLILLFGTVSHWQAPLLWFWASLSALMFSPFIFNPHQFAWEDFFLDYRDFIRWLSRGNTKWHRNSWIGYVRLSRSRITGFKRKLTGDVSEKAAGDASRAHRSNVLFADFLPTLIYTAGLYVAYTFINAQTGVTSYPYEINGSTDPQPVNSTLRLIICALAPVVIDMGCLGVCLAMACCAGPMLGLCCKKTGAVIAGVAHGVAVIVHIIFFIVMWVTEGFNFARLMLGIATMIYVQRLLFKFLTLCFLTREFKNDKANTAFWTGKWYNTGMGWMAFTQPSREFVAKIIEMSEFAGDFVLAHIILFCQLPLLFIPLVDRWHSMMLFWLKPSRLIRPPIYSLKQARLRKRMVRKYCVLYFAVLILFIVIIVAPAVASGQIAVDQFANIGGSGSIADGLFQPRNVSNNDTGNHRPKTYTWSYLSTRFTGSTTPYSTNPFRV
T1 sequence (O42825 1-195 partner limits assumed): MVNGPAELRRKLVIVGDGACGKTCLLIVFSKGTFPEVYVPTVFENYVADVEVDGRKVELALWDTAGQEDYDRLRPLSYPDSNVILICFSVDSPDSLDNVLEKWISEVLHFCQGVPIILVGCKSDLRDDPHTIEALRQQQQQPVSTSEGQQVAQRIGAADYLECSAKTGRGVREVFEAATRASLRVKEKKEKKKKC

| IC50 | Structure (SMILES) |
| --- | --- |
| 85.1 nM | CC(C)[C@@H](C)[C@@]1(C)CC[C@]2(C)[C@H]3CC[C@@H]4[C@@]5(COC[C@@]4(C)[C@@H](OC[C@](C)(N)C(C)C)[C@H](n4nnc(CO)n4)C5)C3=CC[C@@]2(C)[C@@H]1C(=O)O [Example 43B, (1S,4aR,6aS,7R,8R,10aR,10bR,12aR,14R,15R)-15-[[(2R)-2-amino-2,3-dimethylbutyl]oxy]-8-[(1R)-1,2-dimethylpropyl]-14-[5-(hydroxymethyl)-2H-tetrazol-2-yl]-1,6,6a,7,8,9,10,10a,10b,11,12,12a-dodecahydro-1,6a,8,10a-tetramethyl-4H-1,4a-propano-2H-phenanthro[1,2-c]pyran-7-carboxylic acid] |
| 3.06 nM | CC(C)[C@@H](C)[C@@]1(C)CC[C@]2(C)[C@H]3CC[C@@H]4[C@@]5(COC[C@@]4(C)[C@@H](OC[C@@](C)(N)C(C)C)[C@H](n4nnc(N)n4)C5)C3=CC[C@@]2(C)[C@@H]1C(N)=O [Example 51, (1S,4aR,6aS,7R,8R,10aR,10bR,12aR,14R,15R)-15-[[(2S)-2-amino-2,3-dimethylbutyl]oxy]-14-(5-amino-2H-tetrazol-2-yl)-8-[(1 R)-1,2-dimethylpropyl]-1,6,6a,7,8,9,10,10a,10b,11,12,12a-dodecahydro-1,6a,8,10a-tetramethyl-4H-1,4a-propano-2H-phenanthro[1,2-c]pyran-7-carboxamide] |
| 2.99 nM | CN[C@@](C)(CO[C@H]1[C@H](n2nnc(N)n2)C[C@@]23COC[C@]1(C)[C@@H]2CC[C@H]1C3=CC[C@@]2(C)[C@H](C(=O)O)[C@@](C)([C@H](C)C(C)C)CC[C@]12C)C(C)C [Example 52, (1S,4aR,6aS,7R,8R,10aR,10bR,12aR,14R,15R)-14-(5-amino-2H-tetrazol-2-yl)-15-[[(2R)-2,3-dimethyl-2-(methylamino)butyl]oxy]-8-[(1R)-1,2-dimethylpropyl]-1,6,6a,7,8,9,10,10a,10b,11,12,12a-dodecahydro-1,6a,8,10a-tetramethyl-4H-1,4a-propano-2H-phenanthro[1,2-c]pyran-7-carboxylic acid] |
| 11.5 nM | CCCN[C@@](C)(CO[C@H]1[C@H](n2nnc(N)n2)C[C@@]23COC[C@]1(C)[C@@H]2CC[C@H]1C3=CC[C@@]2(C)[C@H](C(=O)O)[C@@](C)([C@H](C)C(C)C)CC[C@]12C)C(C)C [Example 55, (1S,4aR,6aS,7R,8R,10aR,10bR,12aR,14R,15R)-14-(5-amino-2H-tetrazol-2-yl)-15-[[(2R)-2,3-dimethyl-2-(propylamino)butyl]oxy]-8-[(1R)-1,2-dimethylpropyl]-1,6,6a,7,8,9,10,10a,10b,11,12,12a-dodecahydro-1,6a,8,10a-tetramethyl-4H-1,4a-propano-2H-phenanthro[1,2-c]pyran-7-carboxylic acid] |
| 8.61 nM | CC(C)N[C@@](C)(CO[C@H]1[C@H](n2nnc(N)n2)C[C@@]23COC[C@]1(C)[C@@H]2CC[C@H]1C3=CC[C@@]2(C)[C@H](C(=O)O)[C@@](C)([C@H](C)C(C)C)CC[C@]12C)C(C)C [Example 57, (1S,4aR,6aS,7R,8R,10aR,10bR,12aR,14R,15R)-14-(5-amino-2H-tetrazol-2-yl)-15-[[(2R)-2,3-dimethyl-2-[(1-methylethyl)amino]butyl]oxy]-8-[(1R)-1,2-dimethylpropyl]-1,6,6a,7,8,9,10,10a,10b,11,12,12a-dodecahydro-1,6a,8,10a-tetramethyl-4H-1,4a-propano-2H-phenanthro[1,2-c]pyran-7-carboxylic acid] |
| 10.7 nM | CC(C)[C@@H](C)[C@@]1(C)CC[C@]2(C)[C@H]3CC[C@@H]4[C@@]5(COC[C@@]4(C)[C@@H](OC[C@](C)(NCc4ccccc4)C(C)C)[C@H](n4nnc(N)n4)C5)C3=CC[C@@]2(C)[C@@H]1C(=O)O [Example 61, (1S,4aR,6aS,7R,8R,10aR,10bR,12aR,14R,15R)-14-(5-amino-2H-tetrazol-2-yl)-15-[[(2R)-2,3-dimethyl-2-[(phenylmethyl)amino]butyl]oxy]-8-[(1R)-1,2-dimethylpropyl]-1,6,6a,7,8,9,10,10a,10b,11,12,12a-dodecahydro-1,6a,8,10a-tetramethyl-4H-1,4a-propano-2H-phenanthro[1,2-c]pyran-7-carboxylic acid] |
| 28.1 nM | CCCN(C)[C@](C)(CO[C@H]1[C@H](n2nnc(N)n2)C[C@@]23COC[C@]1(C)[C@@H]2CC[C@H]1C3=CC[C@@]2(C)[C@H](C(=O)O)[C@@](C)([C@H](C)C(C)C)CC[C@]12C)C(C)C [Example 69, (1S,4aR,6aS,7R,8R,10aR,10bR,12aR,14R,15R)-14-(5-amino-2H-tetrazol-2-yl)-15-[[(2S)-2,3-dimethyl-2-(methylpropylamino)butyl]oxy]-8-[(1R)-1,2-dimethylpropyl]-1,6,6a,7,8,9,10,10a,10b,11,12,12a-dodecahydro-1,6a,8,10a-tetramethyl-4H-1,4a-propano-2H-phenanthro[1,2-c]pyran-7-carboxylic acid] |
| 12.7 nM | CCCCN[C@](C)(CO[C@H]1[C@H](n2nnc(N)n2)C[C@@]23COC[C@]1(C)[C@@H]2CC[C@H]1C3=CC[C@@]2(C)[C@H](C(=O)O)[C@@](C)([C@H](C)C(C)C)CC[C@]12C)C(C)C [Example 71, (1S,4aR,6aS,7R,8R,10aR,10bR,12aR,14R,15R)-14-(5-amino-2H-tetrazol-2-yl)-15-[[(2S)-2-(butylamino)-2,3-dimethylbutyl]oxy]-8-[(1R)-1,2-dimethylpropyl]-1,6,6a,7,8,9,10,10a,10b,11,12,12a-dodecahydro-1,6a,8,10a-tetramethyl-4H-1,4a-propano-2H-phenanthro[1,2-c]pyran-7-carboxylic acid] |
| 20.9 nM | CCC[C@H](CO[C@H]1[C@H](n2nnc(N)n2)C[C@@]23COC[C@]1(C)[C@@H]2CC[C@H]1C3=CC[C@@]2(C)[C@H](C(=O)O)[C@@](C)([C@H](C)C(C)C)CC[C@]12C)N(C)C [Example 77, (1S,4aR,6aS,7R,8R,10aR,10bR,12aR,14R,15R)-14-(5-amino-2H-tetrazol-2-yl)-15-[[(2R)-2-(dimethylamino)pentyl]oxy]-8-[(1R)-1,2-dimethylpropyl]-1,6,6a,7,8,9,10,10a,10b,11,12,12a-dodecahydro-1,6a,8,10a-tetramethyl-4H-1,4a-propano-2H-phenanthro[1,2-c]pyran-7-carboxylic acid] |

| Structure (SMILES) | IC50 |
| --- | --- |
| CC(C)C(C(C)O[C@H]1[C@H](n2nnc(N)n2)C[C@@]23COC[C@]1(C)[C@@H]2CC[C@H]1C3=CC[C@@]2(C)[C@H](C(=O)O)[C@@](C)([C@H](C)C(C)C)CC[C@]12C)N(C)C (stereo partly drawn) [Example 49, (1S,4aR,6aS,7R,8R,10aR,10bR,12aR,14R,15R)-14-(5-amino-2H-tetrazol-2-yl)-15-[2-(dimethylamino)-1,3-dimethylbutoxy]-8-[(1R)-1,2-dimethylpropyl]-1,6,6a,7,8,9,10,10a,10b,11,12,12a-dodecahydro-1,6a,8,10a-tetramethyl-4H-1,4a-propano-2H-phenanthro[1,2-c]pyran-7-carboxylic acid] | 26.4 nM |
